The term EC50 denotes the concentration needed to bring the measured effect to its halfway point. By Ki is commonly meant a dissociation constant, usually derived from enzyme kinetics or from competition with a known ligand.

Data on 11 compounds can be found in US11542288B2, “Antiviral compounds” (priority 2020, dated 2023).

The subject of one assay is wild-type HIV-1. The assay can be described thus: HIV antiviral assay (293T / TZM-BL luciferase). Type of assay: cell-based. The following applies: read-out: Antiviral WT EC50.
In another assay the target is HIV-1 protease KY24 (Human immunodeficiency virus type 1, UniProt P12497). The following applies: read-out: Ki KY24; drug-resistant protease variant KY24.
The target in the next assay is T1, HIV-1 protease 10 Mutant (Human immunodeficiency virus type 1 group M subtype B, UniProt P12497).
T1 construct: onto NL4-3 wild-type protease on a pET11a plasmid with codon optimization for protein expression in Escherichia coli; A Q7K mutation was included to prevent autoproteolysis
Put plainly: HIV enzyme inhibition assay (Ki), 10 Mutant variant. Type of assay: biochemical. The following applies: drug-resistant protease variant 10 Mutant.

A further assay concerns the target T2, HIV-1 protease I50V/A71V (Human immunodeficiency virus type 1 group M subtype B, UniProt P12497, A559V/I538V/Q495K).
T2 construct: onto NL4-3 wild-type protease on a pET11a plasmid; made in house
Put plainly: HIV enzyme inhibition assay (Ki), I50V/A71V variant. The following applies: drug-resistant protease variant I50V/A71V. The format is biochemical.

A further assay has as its target T3, HIV-1 protease 8 Mutant (Human immunodeficiency virus type 1 group M subtype B, UniProt P12497).
T3 construct: onto NL4-3 wild-type protease on a pET11a plasmid with codon optimization for protein expression in Escherichia coli; A Q7K mutation was included to prevent autoproteolysis
Put plainly: HIV enzyme inhibition assay (Ki), 8 Mutant variant. Type of assay: biochemical. The following applies: drug-resistant protease variant 8 Mutant.

A further assay deals with T4, HIV-1 protease 11 Mutant (Human immunodeficiency virus type 1 group M subtype B, UniProt P12497).
T4 construct: onto NL4-3 wild-type protease on a pET11a plasmid with codon optimization for protein expression in Escherichia coli; A Q7K mutation was included to prevent autoproteolysis
Put plainly: HIV enzyme inhibition assay (Ki), 11 Mutant variant. The format is biochemical. The note with it: drug-resistant protease variant 11 Mutant.

Another assay has as its target T5, HIV-1 protease I84V (Human immunodeficiency virus type 1 group M subtype B, UniProt P12497, I572V/Q495K).
T5 construct: onto NL4-3 wild-type protease on a pET11a plasmid; made in house
Put plainly: HIV enzyme inhibition assay (Ki), I84V variant. Type of assay: biochemical. The note with it: drug-resistant protease variant I84V.

The target in assay [1] is T6, HTLV-1 protease (Human T-cell leukemia virus type I, UniProt Q82134, L40I). The note with it: read-out: Ki against HTLV-1 protease; 1 μM protein, MA/CA FRET substrate.
Assay [2] deals with T6, HTLV-1 protease. The assay can be described thus: biochemical.

Read-outs that look alike come from different tables or passages of the source.

T6 sequence (Q82134 entry or part of it L40I): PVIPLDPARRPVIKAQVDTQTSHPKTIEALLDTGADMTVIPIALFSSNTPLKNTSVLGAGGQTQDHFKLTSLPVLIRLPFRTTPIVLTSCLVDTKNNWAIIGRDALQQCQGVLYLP

As to `CCOP(=O)(COc1ccc(C[C@H](NC(=O)O[C@H]2CO[C@H]3OCC[C@H]32)[C@H](O)CN(C[C@@H](C)CC)S(=O)(=O)c2ccc(OC)cc2)cc1)OCC` [Example 3, (3R,3aS,6aR)-hexahydrofuro [2,3-b]furan-3-yl ((2S,3R)-1-(4-((diethoxyphosphoryl)methoxy)phenyl)-3-hydroxy-4-((4-methoxy-N—((S)-2-methylbutyl)phenyl)sulfonamido)butan-2-yl)carbamate], the 50% effective concentration (EC50) with wild-type HIV-1 stood at 7.8 nM. Besides, the inhibition constant Ki on HIV-1 protease KY24 was 0.16 ± 0.02 nM; at HIV-1 protease 10 Mutant, 3.7 ± 0.3 nM; at HIV-1 protease I50V/A71V, less than 0.005 nM; at HIV-1 protease 8 Mutant it was 0.78 ± 0.07 nM; at HIV-1 protease 11 Mutant, 10.5 ± 0.9 nM; at HIV-1 protease I84V, less than 0.005 nM.

Consider `CCOP(=O)(COc1ccc(C[C@H](NC(=O)O[C@H]2CO[C@H]3OCC[C@H]32)[C@H](O)CN(CC(CC)CC)S(=O)(=O)c2ccc3c(c2)OCO3)cc1)OCC` [Example 4, (3R,3aS,6aR)-hexahydrofuro[2,3-b]furan-3-yl ((2S,3R)-1-(4-((diethoxyphosphoryl)methoxy)phenyl)-4-(N-(2-ethylbutyl)benzo[d][1,3]dioxole-5-sulfonamido)-3-hydroxybutan-2-yl)carbamate], for which the concentration giving a half-maximal response (EC50) in the assay on wild-type HIV-1 turned out to be 3.11 nM. Besides, the Ki on HIV-1 protease KY24 is 0.08 ± 0.03 nM; at HIV-1 protease 10 Mutant, 1.6 ± 0.06 nM; on HIV-1 protease I50V/A71V, less than 0.005 nM; on HIV-1 protease 8 Mutant, 0.37 ± 0.03 nM; at HIV-1 protease 11 Mutant it was 6.9 ± 0.5 nM; at HIV-1 protease I84V it was less than 0.005 nM.

Turning to `CCOP(=O)(COc1ccc(C[C@H](NC(=O)O[C@H]2CO[C@H]3OCC[C@H]32)[C@H](O)CN(C[C@@H](C)CC)S(=O)(=O)c2ccc(N)cc2)cc1)OCC` [Example 5, (3R,3aS,6aR)-hexahydrofuro[2,3-b]furan-3-yl ((2S,3R)-4-((4-amino-N—((S)-2-methylbutyl)phenyl)sulfonamido)-1-(4-((diethoxyphosphoryl)methoxy)phenyl)-3-hydroxybutan-2-yl)carbamate], the half-maximal effective concentration (EC50) in the assay on wild-type HIV-1 was 22.9 nM. Further, the inhibition constant (Ki) at HIV-1 protease KY24 was 2.31 ± 0.09 nM; on HIV-1 protease 10 Mutant, 146 ± 10 nM; at HIV-1 protease I50V/A71V, less than 0.005 nM; at HIV-1 protease 8 Mutant, 13.3 ± 3.5 nM; on HIV-1 protease 11 Mutant, 259 ± 17 nM; on HIV-1 protease I84V, less than 0.005 nM.

`CCOP(=O)(COc1ccc(C[C@H](NC(=O)O[C@H]2CO[C@H]3OCC[C@H]32)[C@H](O)CN(C[C@@H](C)CC)S(=O)(=O)c2ccc(CO)cc2)cc1)OCC` [Example 6, (3R,3aS,6aR)-hexahydrofuro[2,3-b]furan-3-yl ((2S,3R)-1-(4-((diethoxyphosphoryl)methoxy)phenyl)-3-hydroxy-4-((4-(hydroxymethyl)-N—((S)-2-methylbutyl)phenyl)sulfonamido)butan-2-yl)carbamate]: in the assay on wild-type HIV-1, the EC50 stood at 27.3 nM. Besides, the Ki on HIV-1 protease KY24 is 1.89 ± 0.17 nM; on HIV-1 protease 10 Mutant, 52.9 ± 4.2 nM; on HIV-1 protease I50V/A71V, less than 0.005 nM; on HIV-1 protease 8 Mutant it was 4.98 ± 0.4 nM; at HIV-1 protease 11 Mutant, 103 ± 3 nM; at HIV-1 protease I84V it was less than 0.005 nM.

Take `CCOP(=O)(COc1ccc(C[C@H](NC(=O)O[C@H]2CO[C@H]3OCC[C@H]32)[C@H](O)CN(CC(CC)CC)S(=O)(=O)c2ccc(OC)cc2)cc1)OCC` [Example 8, (3R,3aS,6aR)-hexahydrofuro[2,3-b]furan-3-yl ((2S,3R)-1-(4-((diethoxyphosphoryl)methoxy)phenyl)-4-((N-(2-ethylbutyl)-4-methoxyphenyl)sulfonamido)-3-hydroxybutan-2-yl)carbamate]: the EC50 in the assay with wild-type HIV-1 was 5.15 nM. The Ki on HIV-1 protease KY24 is 0.16 ± 0.04 nM; at HIV-1 protease 10 Mutant, 1.26 ± 0.08 nM; at HIV-1 protease I50V/A71V it was less than 0.005 nM; at HIV-1 protease 8 Mutant, 0.77 ± 0.06 nM; on HIV-1 protease 11 Mutant, 2.2 ± 0.2 nM; on HIV-1 protease I84V it was less than 0.005 nM.

Take `CCOP(=O)(COc1ccc(C[C@H](NC(=O)O[C@H]2CO[C@H]3OCC[C@H]32)[C@H](O)CN(CC(C)C)S(=O)(=O)c2ccc3c(c2)OCO3)cc1)OCC` [Example 9, (3R,3aS,6aR)-hexahydrofuro[2,3-b]furan-3-yl ((2S,3R)-1-(4-((diethoxyphosphoryl)methoxy)phenyl)-3-hydroxy-4-(N-isobutylbenzo[d][1,3]dioxole-5-sulfonamido)butan-2-yl)carbamate]: the EC50 with wild-type HIV-1 stood at 5.67 nM. The inhibitory constant (Ki) is 0.36 ± 0.05 nM on HIV-1 protease KY24; 4.5 ± 0.8 nM on HIV-1 protease 10 Mutant; less than 0.005 nM at HIV-1 protease I50V/A71V; 2.2 ± 0.5 nM on HIV-1 protease 8 Mutant; 63.5 ± 15.2 nM at HIV-1 protease 11 Mutant; less than 0.005 nM at HIV-1 protease I84V.

Regarding `CCOP(=O)(COc1ccc(C[C@H](NC(=O)O[C@H]2CO[C@H]3OCC[C@H]32)[C@H](O)CN(CC(C)C)S(=O)(=O)c2ccc3ncsc3c2)cc1)OCC` [Example 10, (3R,3aS,6aR)-hexahydrofuro[2,3-b]furan-3-yl ((2S,3R)-1-(4-((diethoxyphosphoryl)methoxy)phenyl)-3-hydroxy-4-(N-isobutylbenzo [d]thiazole-6-sulfonamido)butan-2-yl)carbamate], the EC50 in the assay with wild-type HIV-1 came to 10.4 nM. Besides, the Ki on HIV-1 protease KY24 is 0.23 ± 0.02 nM; at HIV-1 protease 10 Mutant, 1.9 ± 0.3 nM; at HIV-1 protease I50V/A71V it was less than 0.005 nM; at HIV-1 protease 8 Mutant it was 0.93 ± 0.2 nM; at HIV-1 protease 11 Mutant, 15 ± 3.5 nM; on HIV-1 protease I84V, less than 0.005 nM.

As for `CCOP(=O)(COc1ccc(C[C@H](NC(=O)O[C@H]2CO[C@H]3OCC[C@H]32)[C@H](O)CN(C[C@@H](C)CC)S(=O)(=O)c2ccc3ncsc3c2)cc1)OCC` [Example 11, (3R,3aS,6aR)-hexahydrofuro[2,3-b]furan-3-yl ((2S,3R)-1-(4-((diethoxyphosphoryl)methoxy)phenyl)-3-hydroxy-4-(N—((S)-2-methylbutyl)benzo[d]thiazole-6-sulfonamido)butan-2-yl)carbamate], the half-maximal effective concentration (EC50) in the assay with wild-type HIV-1 is 9.93 nM. Also, the Ki was 0.09 ± 0.01 nM on HIV-1 protease KY24; 1.2 ± 0.4 nM at HIV-1 protease 10 Mutant; less than 0.005 nM at HIV-1 protease I50V/A71V; 1.8 ± 0.5 nM on HIV-1 protease 8 Mutant; 9.03 ± 4.21 nM at HIV-1 protease 11 Mutant; less than 0.005 nM at HIV-1 protease I84V.

For the compound `CCOP(=O)(COc1ccc(C[C@H](NC(=O)O[C@H]2CO[C@H]3OCC[C@H]32)[C@H](O)CN(CC(CC)CC)S(=O)(=O)c2ccc3ncsc3c2)cc1)OCC` [Example 12, (3R,3aS,6aR)-hexahydrofuro[2,3-b]furan-3-yl ((2S,3R)-1-(4-((diethoxyphosphoryl)methoxy)phenyl)-4-(N-(2-ethylbutyl)benzo[d]thiazole-6-sulfonamido)-3-hydroxybutan-2-yl)carbamate], the EC50 with wild-type HIV-1 stood at 10.7 nM. Besides, the inhibitory constant (Ki) was 0.24 ± 0.09 nM at HIV-1 protease 10 Mutant, less than 0.005 nM on HIV-1 protease I50V/A71V, 0.25 ± 0.08 nM on HIV-1 protease 8 Mutant and less than 0.005 nM on HIV-1 protease I84V.

Take `CCOP(=O)(COc1ccc(C[C@H](NC(=O)O[C@H]2CO[C@H]3OCC[C@H]32)[C@H](O)CN(CC(CC)CC)S(=O)(=O)c2ccc(CO)cc2)cc1)OCC` [Example 13, (3R,3aS,6aR)-hexahydrofuro[2,3-b]furan-3-yl ((2S,3R)-1-(4-((diethoxyphosphoryl)methoxy)phenyl)-4-((N-(2-ethylbutyl)-4-(hydroxymethyl)phenyl)sulfonamido)-3-hydroxybutan-2-yl)carbamate]: the half-maximal effective concentration (EC50) in the assay with wild-type HIV-1 stood at 17 nM. For the same compound, the Ki on HIV-1 protease KY24 is 0.6 ± 0.1 nM; on HIV-1 protease 10 Mutant, 32.1 ± 4.3 nM; on HIV-1 protease I50V/A71V it was less than 0.005 nM; at HIV-1 protease 8 Mutant, 2.2 ± 0.4 nM; at HIV-1 protease 11 Mutant, 81.2 ± 10.8 nM; at HIV-1 protease I84V, less than 0.005 nM.

For `CC(C)(C)NC(=O)[C@@H]1CN(Cc2cccnc2)CCN1C[C@@H](O)C[C@@H](Cc1ccccc1)C(=O)N[C@H]1c2ccccc2C[C@H]1O` [IDV, indinavir, reference compound], the Ki came to 62700 nM at HTLV-1 protease [1] and 60000 nM on HTLV-1 protease [2].
